According to PMC8460509, “Imitating evolution’s tinkering by protein engineering reveals extension of human galectin-7 activity” (Histochemistry and cell biology, 2021):

How the values were obtained:
Assay in all cases: isothermal titration calorimetry
Gal-7 = target: T1, Gal-7 (Homo sapiens, UniProt P47929); format: binding; conditions: 25 °C
T1 construct: gene LGALS7; wild type, recombinant from E. coli, lactosylated Sepharose; non-covalent homodimer
Source text: isothermal titration calorimetry on Gal-7 | TF) antigen CD176) interacts with Gal-7’s CRD (Table S15, Fig. S11) | The data obtained with Lac (Table S14) corroborated the conclusions on activity

Gal-3–Gal-7 = target: T2, Gal-3–Gal-7; format: binding, Homo sapiens; conditions: 25 °C, pH 7.2, 20 mM phosphate, 10 mM NaCl, 10 mM beta-mercaptoethanol; one-set-of-sites, n fitted
T2 construct: gene LGALS3; one polypeptide; recombinant from E. coli
Source text: isothermal titration calorimetry on Gal-3–Gal-7

Gal-7–Gal-1 = target: T3, Gal-7–Gal-1; format: binding, Homo sapiens; conditions: 25 °C, pH 7.2, 20 mM phosphate, 10 mM NaCl, 10 mM beta-mercaptoethanol; one-set-of-sites, n fitted
T3 construct: gene LGALS7; direct fusion, Gal-7 CRD N-terminal, Gal-1 CRD C-terminal; one polypeptide; recombinant from E. coli
Source text: isothermal titration calorimetry on Gal-7–Gal-1

Gal-3–8S–Gal-7 = target: T4, Gal-3–8S–Gal-7; format: binding, Homo sapiens; conditions: 25 °C, pH 7.2, 20 mM phosphate, 10 mM NaCl, 10 mM beta-mercaptoethanol; one-set-of-sites, n fitted
T4 construct: gene LGALS3; one polypeptide; recombinant from E. coli
Source text: isothermal titration calorimetry on Gal-3–8S–Gal-7

Gal-1–Gal-7 = target: T5, Gal-1–Gal-7; format: binding, Homo sapiens; conditions: 25 °C, pH 7.2, 20 mM phosphate, 10 mM NaCl, 10 mM beta-mercaptoethanol; one-set-of-sites, n fitted
T5 construct: gene LGALS1; direct fusion, Gal-1 CRD N-terminal, Gal-7 CRD C-terminal; one polypeptide; recombinant from E. coli
Source text: isothermal titration calorimetry on Gal-1–Gal-7

Gal-7–8S–Gal-3 = target: T6, Gal-7–8S–Gal-3; format: binding, Homo sapiens; conditions: 25 °C, pH 7.2, 20 mM phosphate, 10 mM NaCl, 10 mM beta-mercaptoethanol; one-set-of-sites, n fitted; LacNAc 2 mM
T6 construct: gene LGALS7; one polypeptide; recombinant from E. coli
Source text: isothermal titration calorimetry on Gal-7–8S–Gal-3

Gal-1–8S–Gal-7 = target: T7, Gal-1–8S–Gal-7; format: binding, Homo sapiens; conditions: 25 °C, pH 7.2, 20 mM phosphate, 10 mM NaCl, 10 mM beta-mercaptoethanol; one-set-of-sites, n fitted
T7 construct: gene LGALS1; Gal-1 CRD N-terminal, 33-amino-acid linker of Gal-8S, Gal-7 CRD C-terminal; one polypeptide; recombinant from E. coli
Source text: isothermal titration calorimetry on Gal-1–8S–Gal-7

Gal-7–Gal-3 = target: T8, Gal-7–Gal-3; format: binding, Homo sapiens; conditions: 25 °C, pH 7.2, 20 mM phosphate, 10 mM NaCl, 10 mM beta-mercaptoethanol; one-set-of-sites, n fitted
T8 construct: gene LGALS7; one polypeptide; recombinant from E. coli
Source text: isothermal titration calorimetry on Gal-7–Gal-3

Gal-7–8S–Gal-7 = target: T9, Gal-7–8S–Gal-7 (Homo sapiens, UniProt P47929); format: binding; conditions: 25 °C, pH 7.2, 20 mM phosphate, 10 mM NaCl, 10 mM beta-mercaptoethanol; one-set-of-sites, n fitted
T9 construct: gene LGALS7; two Gal-7 CRDs in one polypeptide joined by the 33-amino-acid linker of Gal-8S (covalent homodimer); recombinant from E. coli
T9 sequence (P47929 whole entry): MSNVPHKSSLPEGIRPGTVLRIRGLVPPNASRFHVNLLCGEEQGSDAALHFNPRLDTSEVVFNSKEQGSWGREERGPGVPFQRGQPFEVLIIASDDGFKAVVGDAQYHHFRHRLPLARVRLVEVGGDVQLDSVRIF
Source text: isothermal titration calorimetry on Gal-7–8S–Gal-7

Gal-7–Gal-7 = target: T10, Gal-7–Gal-7 (Homo sapiens, UniProt P47929); format: binding; conditions: 25 °C, pH 7.2, 20 mM phosphate, 10 mM NaCl, 10 mM beta-mercaptoethanol; one-set-of-sites, n fitted; LacNAc 10 mM
T10 construct: gene LGALS7; two Gal-7 CRDs directly fused in one polypeptide (covalent homodimer, no added residues); recombinant from E. coli
T10 sequence (P47929 whole entry, the tested form may be a part): as the sequence (P47929 whole entry) above
Source text: isothermal titration calorimetry on Gal-7–Gal-7

T1 sequence (P47929 whole entry): as above

SMILES	Kd (Gal-7; pH 7.2) [µM]	Kd (Gal-3–Gal-7) [µM]	Kd (Gal-7–Gal-1) [µM]	Kd (Gal-3–8S–Gal-7) [µM]	Kd (Gal-1–Gal-7) [µM]	Kd (Gal-7–8S–Gal-3) [µM]	Kd (Gal-1–8S–Gal-7) [µM]	Kd (Gal-7–Gal-3) [µM]	Kd (Gal-7; pH 7.2, 20 mM phosphate, 10 mM NaCl, 10 mM beta-mercaptoethanol, one-set-of-sites, n fitted) [µM]	Kd (Gal-7–8S–Gal-7) [µM]	Kd (Gal-7–Gal-7) [µM]
CC(=O)N[C@H]1C(O)O[C@H](CO)[C@H](O)[C@@H]1O[C@@H]1O[C@H](CO)[C@H](O)[C@H](O)[C@H]1O (stereo partly drawn) [core 1 mucin-type O-glycan disaccharide]	1250 ± 126	–	–	–	–	–	–	–	–	–	–
CC(=O)N[C@H]1C(O)O[C@H](CO)[C@@H](O[C@@H]2O[C@H](CO)[C@H](O)[C@H](O)[C@H]2O)[C@@H]1O (stereo partly drawn) [LacNAc]	–	96.2 ± 2.1	103 ± 6.11	68.6 ± 6.56	175 ± 2.11	32.5 ± 0.81	162 ± 3.79	86.5 ± 5.75	316 ± 5.88	287 ± 9.55	261 ± 6.21
OC[C@H]1O[C@@H](O[C@H]2[C@H](O)[C@@H](O)C(O)O[C@@H]2CO)[C@H](O)[C@@H](O)[C@H]1O (stereo partly drawn) [Lac]	323 ± 5.7	–	–	–	–	–	–	–	–	–	–
